Test results from patent publication US12679878B2, “CRF2 receptor agonists and their use in therapy” (SANOFI, priority 2020, dated 2026).
Read-outs that look alike come from different tables or passages of the source. Starred links: 1 amine or outer side, 2 acyl side, 3 side chain; linkers in the order of their positions; H or OH if unused. Non-standard residues stand in square brackets, D forms with d. Residues, ends and D or L forms follow the SMILES beside them. Groups on a side chain read outwards from the residue. *: point of attachment. C16 diacid = O=C(O)CCCCCCCCCCCCCCC(=O)*; γGlu = O=C(O)[C@H](CCC(=O)[*:2])N[*:1]; Palmitoyl = CCCCCCCCCCCCCCCC(=O)*; AEEA = NCCOCCOCC(=O)O; Aib = CC(C)(N)C(=O)O

Experiments:
CRF1R receptor = target: T1, CRF1R receptor (Homo sapiens, UniProt P34998); test: cAMP activity at anti-target CRF1R, CHO-K1 cell line clone 2 (Example 19.10); assay type: cell-based; conditions: for Emax: 100% = Sauvagine at 100 nM; for CRF1/CRF2 ratio: ratio of CRF1 EC50 to CRF2 EC50
T1 construct: host or cells: CHO-K1 clone 2
T1 sequence (P34998 24-415): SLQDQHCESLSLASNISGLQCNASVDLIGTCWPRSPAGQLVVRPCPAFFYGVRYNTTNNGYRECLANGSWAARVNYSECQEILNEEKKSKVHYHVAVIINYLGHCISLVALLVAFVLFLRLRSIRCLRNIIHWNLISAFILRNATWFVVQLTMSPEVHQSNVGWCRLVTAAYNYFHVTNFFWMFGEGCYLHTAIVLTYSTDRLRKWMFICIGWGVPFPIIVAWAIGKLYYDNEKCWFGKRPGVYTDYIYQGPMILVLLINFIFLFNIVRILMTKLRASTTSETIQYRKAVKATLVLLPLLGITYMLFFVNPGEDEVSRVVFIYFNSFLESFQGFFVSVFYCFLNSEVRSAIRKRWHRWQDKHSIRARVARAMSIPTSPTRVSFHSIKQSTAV
Procedure, shortened: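 A CRF1R-overexpressing CHO-K1 line (clone 2) was grown in F12/10% FBS/G418 and frozen in aliquots before use. The cAMP assay followed the preceding procedure, with 100% activation defined by Sauvagine at 100 nM.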

human CRF2α receptor = target: T2, human CRF2α receptor (Homo sapiens, UniProt Q13324); test: cAMP agonism at human CRF2α receptor in TeloHEAC cells, FA modified peptides (Example 19.9); assay type: cell-based; conditions: 0% HSA, relative to urocortin 2
T2 construct: expressed in transfected cells; host or cells: TeloHEAC
T2 sequence (Q13324 1-411): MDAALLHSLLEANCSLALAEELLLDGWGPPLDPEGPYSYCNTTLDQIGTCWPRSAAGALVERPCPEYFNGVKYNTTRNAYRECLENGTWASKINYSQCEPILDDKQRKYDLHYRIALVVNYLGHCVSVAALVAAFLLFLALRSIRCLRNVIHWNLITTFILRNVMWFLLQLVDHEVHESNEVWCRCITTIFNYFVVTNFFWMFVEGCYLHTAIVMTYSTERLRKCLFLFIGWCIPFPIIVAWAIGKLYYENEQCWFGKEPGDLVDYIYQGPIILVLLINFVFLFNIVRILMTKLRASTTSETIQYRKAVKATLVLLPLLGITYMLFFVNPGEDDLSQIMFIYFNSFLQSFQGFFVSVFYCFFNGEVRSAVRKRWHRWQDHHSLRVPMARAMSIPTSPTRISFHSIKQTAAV
Description: Agonism of compounds for human corticotropin-releasing factor 2α (CRF2α receptor) was determined by a functional assay measuring cAMP modulation upon treatment of TeloHEAC cells stably expressing human CRF2α receptor.
Compounds were dissolved at 0.5 mM in 100% DMSO and serially diluted (1:2) in 100% DMSO for 16 dilutions. 20 nL of each dilution was then transferred to 384-well assay plate using an acoustic droplet ejection instrument. 5 μL of compound buffer (1×HBSS; 20 mM HEPES, 2 mM IBMX, 0% or 0.2% HSA) were then added to each well.
Prior to use, frozen cells were thawed quickly at 37° C. and washed (5 min at 900 rpm) with 20 mL cell buffer (1×HBSS; 20 mM HEPES). Cells were resuspended in cell buffer and adjusted to a cell density of 800.000 cells/ml.
5 μL cells (final dell density: 4000 cells/well) were dispensed in the compound-containing 384-well assay plate and incubated for 30 minutes 37° C.
The CAMP level in treated cells was determined using the Cisbio 62AM4PEC kit according to manufacturer's instruction. Finally, plates were incubated for 1 h at room temperature before measuring the fluorescence ratio between 665/620 nm.
The percent activity value (E %) was calculated by setting 100 nM of urocortin 2 (UCN2) as 100%. The in vitro potency of the compounds was quantified by determining the concentrations that caused 50% activation of maximal response (EC50) relative to urocortin 2.

[1] = 0% HSA, CRF1R CHO-K1 clone 2, read-out: EC50 [nM] 0% HSA
[2] = Table 20 side-to-side comparison, read-out: CRF1 EC50

Row | SMILES | EC50 (CRF1R receptor; [1]) | Emax (CRF1R receptor; CRF1R CHO-K1 clone 2) | EC50 (CRF1R receptor; [2]) | CRF1/CRF2 ratio (CRF1R receptor) | EC50 (human CRF2α receptor)
1 | CC[C@H](C)[C@H](N)C(=O)N[C@H](C(=O)N[C@@H](CC(C)C)C(=O)N[C@@H](CO)C(=O)N[C@@H](CC(C)C)C(=O)N[C@@H](CC(=O)O)C(=O)N[C@@H](C(=O)N1CCC[C@H]1C(=O)N[C@H](C(=O)NCC(=O)N[C@@H](CC(C)C)C(=O)N[C@@H](CCCCNC(=O)CC[C@H](NC(=O)CCCCCCCCCCCCCCC(=O)O)C(=O)O)C(=O)N[C@@H](CCC(N)=O)C(=O)N[C@H](C(=O)N[C@@H](CC(C)C)C(=O)N[C@@H](CC(C)C)C(=O)N[C@@H](CCCCN)C(=O)N[C@@H](CCC(N)=O)C(=O)N[C@@H](CCC(=O)O)C(=O)N[C@@H](CCCNC(=N)N)C(=O)N[C@@H](CCC(N)=O)C(=O)N[C@@H](CCCCN)C(=O)N[C@@H](CCCCN)C(=O)NC(C)(C)C(=O)N[C@@H](CCCNC(=N)N)C(=O)N[C@@H](CCC(N)=O)C(=O)N[C@@H](CCC(N)=O)C(=O)N[C@@H](C)C(=O)N[C@@H](CCC(=O)O)C(=O)N[C@H](C(=O)N[C@@H](CC(N)=O)C(=O)N[C@@H](CCCCN)C(=O)N[C@@H](CCCNC(=N)N)C(=O)N[C@H](C(=O)N[C@@H](CC(C)C)C(=O)N[C@@H](CCC(=O)O)C(=O)N[C@@H](CCCNC(=N)N)C(=O)N[C@H](C(N)=O)C(C)C)[C@@H](C)CC)[C@@H](C)O)[C@@H](C)CC)[C@@H](C)CC)C(C)C)C(C)C [compound 195] (H-IVLSLD[dV]PIGLK([γGlu-C16 diacid])QILLKQERQKK[Aib]RQQAETNKRILERV-NH2) | > 100 nM | 17.1% | > 100 nM | >500 | 0.34 nM
2 | CC[C@H](C)[C@H](N)C(=O)N[C@H](C(=O)N[C@@H](CC(C)C)C(=O)N[C@@H](CO)C(=O)N[C@@H](CC(C)C)C(=O)N[C@@H](CC(=O)O)C(=O)N[C@@H](C(=O)N1CCC[C@H]1C(=O)N[C@H](C(=O)NCC(=O)N[C@@H](CC(C)C)C(=O)N[C@@H](CCCCNC(=O)CC[C@H](NC(=O)CCCCCCCCCCCCCCC(=O)O)C(=O)O)C(=O)N[C@@H](CCC(N)=O)C(=O)N[C@H](C(=O)N[C@@H](CC(C)C)C(=O)N[C@@H](CC(C)C)C(=O)N[C@@H](CCCCN)C(=O)N[C@@H](CCC(N)=O)C(=O)N[C@@H](CCC(=O)O)C(=O)N[C@@H](CCCNC(=N)N)C(=O)N[C@@H](CCC(N)=O)C(=O)N[C@@H](CCCCN)C(=O)N[C@@H](CCCCN)C(=O)NC(C)(C)C(=O)N[C@@H](CCCNC(=N)N)C(=O)N[C@@H](CCC(=O)O)C(=O)N[C@@H](CCC(N)=O)C(=O)N[C@@H](C)C(=O)N[C@@H](CCC(=O)O)C(=O)N[C@@H](CCCCN)C(=O)N[C@@H](CC(N)=O)C(=O)N[C@@H](CCCCN)C(=O)N[C@@H](CCCNC(=N)N)C(=O)N[C@H](C(=O)N[C@@H](CC(C)C)C(=O)N[C@@H](CCC(=O)O)C(=O)N[C@@H](CCCNC(=N)N)C(=O)N[C@H](C(N)=O)C(C)C)[C@@H](C)CC)[C@@H](C)CC)[C@@H](C)CC)C(C)C)C(C)C [compound 196] (H-IVLSLD[dV]PIGLK([γGlu-C16 diacid])QILLKQERQKK[Aib]REQAEKNKRILERV-NH2; N-terminus assumed) | > 100 nM | 16.9% | > 100 nM | >500 | 1.08 nM
3 | CCCCCCCCCCCCCCCC(=O)N[C@@H](CCC(=O)NCCCC[C@H](NC(=O)[C@H](CC(C)C)NC(=O)[C@H](CCCCN)NC(=O)[C@@H](NC(=O)[C@@H]1CCCN1C(=O)[C@H](NC(=O)[C@H](CC(=O)O)NC(=O)[C@H](CC(C)C)NC(=O)[C@H](CO)NC(=O)[C@H](CC(C)C)NC(=O)[C@@H](NC(=O)[C@@H](N)[C@@H](C)CC)C(C)C)C(C)C)[C@@H](C)CC)C(=O)N[C@@H](CCC(N)=O)C(=O)N[C@H](C(=O)N[C@@H](CC(C)C)C(=O)N[C@@H](CC(C)C)C(=O)N[C@@H](CCCCN)C(=O)N[C@@H](CCC(N)=O)C(=O)N[C@@H](CCC(=O)O)C(=O)N[C@@H](CCCNC(=N)N)C(=O)N[C@@H](CCC(N)=O)C(=O)N[C@@H](CCCCN)C(=O)N[C@@H](CCCCN)C(=O)N[C@@H](CCC(N)=O)C(=O)N[C@@H](CCCNC(=N)N)C(=O)N[C@@H](CCC(=O)O)C(=O)N[C@@H](CCCCN)C(=O)N[C@@H](C)C(=O)N[C@@H](CCC(=O)O)C(=O)N[C@@H](CCCCN)C(=O)N[C@@H](CC(N)=O)C(=O)N[C@@H](CCCCN)C(=O)N[C@@H](CCC(N)=O)C(=O)N[C@H](C(=O)N[C@@H](CC(C)C)C(=O)N[C@@H](C)C(=O)N[C@@H](CCC(N)=O)C(=O)N[C@H](C(N)=O)C(C)C)[C@@H](C)CC)[C@@H](C)CC)C(=O)O [compound 213] (H-IVLSLD[dV]PIKLK([γGlu-Palmitoyl])QILLKQERQKKQREKAEKNKQILAQV-NH2) |  |  |  |  | 4.48 nM

These reach a lower EC50 (human CRF2α receptor). Values come first.

Row | EC50 (CRF1R receptor; [1]) | Emax (CRF1R receptor; CRF1R CHO-K1 clone 2) | EC50 (CRF1R receptor; [2]) | CRF1/CRF2 ratio (CRF1R receptor) | EC50 (human CRF2α receptor) | SMILES
4 |  |  |  |  | 0.15 nM | CCCCCCCCCCCCCCCC(=O)N[C@@H](CCC(=O)NCCCC[C@H](NC(=O)[C@H](CC(C)C)NC(=O)CNC(=O)[C@@H](NC(=O)[C@@H]1CCCN1C(=O)[C@H](NC(=O)[C@H](CC(=O)O)NC(=O)[C@H](CC(C)C)NC(=O)[C@H](CO)NC(=O)[C@H](CC(C)C)NC(=O)[C@@H](NC(=O)[C@@H](N)[C@@H](C)CC)C(C)C)C(C)C)[C@@H](C)CC)C(=O)N[C@@H](CCC(N)=O)C(=O)N[C@H](C(=O)N[C@@H](CC(C)C)C(=O)N[C@@H](CC(C)C)C(=O)N[C@@H](CCCCN)C(=O)N[C@@H](CCC(N)=O)C(=O)N[C@@H](CCC(=O)O)C(=O)N[C@@H](CCCNC(=N)N)C(=O)N[C@@H](CCC(N)=O)C(=O)N[C@@H](CCCCN)C(=O)N[C@@H](CCCCN)C(=O)NC(C)(C)C(=O)N[C@@H](CCCNC(=N)N)C(=O)N[C@@H](CCC(=O)O)C(=O)N[C@@H](CCC(N)=O)C(=O)N[C@@H](C)C(=O)N[C@@H](CCC(=O)O)C(=O)N[C@H](C(=O)N[C@@H](CC(N)=O)C(=O)N[C@@H](CCCCN)C(=O)N[C@@H](CCC(N)=O)C(=O)N[C@H](C(=O)N[C@@H](CC(C)C)C(=O)N[C@@H](C)C(=O)N[C@@H](CCC(N)=O)C(=O)N[C@H](C(N)=O)C(C)C)[C@@H](C)CC)[C@@H](C)O)[C@@H](C)CC)C(=O)O [compound 215] (H-IVLSLD[dV]PIGLK([γGlu-Palmitoyl])QILLKQERQKK[Aib]REQAETNKQILAQV-NH2; N-terminus assumed)
5 |  |  |  |  | 0.16 nM | CCCCCCCCCCCCCCCC(=O)N[C@@H](CCC(=O)N[C@@H](CCC(=O)NCCOCCOCC(=O)NCCOCCOCC(=O)NCCCC[C@H](NC(=O)[C@H](CC(C)C)NC(=O)CNC(=O)[C@@H](NC(=O)[C@@H]1CCCN1C(=O)[C@H](NC(=O)[C@H](CC(=O)O)NC(=O)[C@H](CC(C)C)NC(=O)[C@H](CO)NC(=O)[C@H](CC(C)C)NC(=O)[C@@H](NC(=O)[C@@H](N)[C@@H](C)CC)C(C)C)C(C)C)[C@@H](C)CC)C(=O)N[C@@H](CCC(N)=O)C(=O)N[C@H](C(=O)N[C@@H](CC(C)C)C(=O)N[C@@H](CC(C)C)C(=O)N[C@@H](CCCCN)C(=O)N[C@@H](CCC(N)=O)C(=O)N[C@@H](CCC(=O)O)C(=O)N[C@@H](CCCNC(=N)N)C(=O)N[C@@H](CCC(N)=O)C(=O)N[C@@H](CCCCN)C(=O)N[C@@H](CCCCN)C(=O)NC(C)(C)C(=O)N[C@@H](CCCNC(=N)N)C(=O)N[C@@H](CCC(=O)O)C(=O)N[C@@H](CCC(N)=O)C(=O)N[C@@H](C)C(=O)N[C@@H](CCC(=O)O)C(=O)N[C@H](C(=O)N[C@@H](CC(N)=O)C(=O)N[C@@H](CCCCN)C(=O)N[C@@H](CCC(N)=O)C(=O)N[C@H](C(=O)N[C@@H](CC(C)C)C(=O)N[C@@H](C)C(=O)N[C@@H](CCC(N)=O)C(=O)N[C@H](C(N)=O)C(C)C)[C@@H](C)CC)[C@@H](C)O)[C@@H](C)CC)C(=O)O)C(=O)O [compound 217] (H-IVLSLD[dV]PIGLK([AEEA-AEEA-γGlu-γGlu-Palmitoyl])QILLKQERQKK[Aib]REQAETNKQILAQV-NH2; N-terminus assumed)
